Data: patent publication US10251395B2, “Substituted furano-/thienocycloalkylamino-2-pyrimidine derivatives and use thereof for controlling undesired plant growth” (Bayer CropScience Aktiengesellschaft, priority 2015, dated 2019)

Legend:
Abutilon theophrasti [1] = assay: Pre-emergence herbicidal effect; type: in vivo; conditions: Dosage 320 g/ha, scored visually after 3 weeks
In short: (§1)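 Using soil-surface application before emergence, the compound was delivered in a water volume equating to 600 to 800 L/ha. Plants grew in a greenhouse for 3 weeks; activity was then rated visually in percent against untreated plants, with 100% for plants killed.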

Alopecurus myosuroides [2] = assay: Pre-emergence herbicidal effect; type: in vivo; conditions: scored visually after 3 weeks
In short: as §1

Amaranthus retroflexus [3] = assay: Pre-emergence herbicidal effect; type: in vivo; conditions: scored visually after 3 weeks
In short: as §1

Echinochloa crus-galli [4] = assay: Pre-emergence herbicidal effect; type: in vivo; conditions: scored visually after 3 weeks
In short: as §1

Lolium multiflorum [5] = assay: Pre-emergence herbicidal effect; type: in vivo; conditions: Dosage 320 g/ha, scored visually after 3 weeks
In short: as §1

Matricaria inodora [6] = assay: Pre-emergence herbicidal effect; type: in vivo; conditions: scored visually after 3 weeks
In short: as §1

Polygonum convolvulus [7] = assay: Pre-emergence herbicidal effect; type: in vivo; conditions: scored visually after 3 weeks
In short: as §1

Setaria viridis [8] = assay: Pre-emergence herbicidal effect; type: in vivo; conditions: scored visually after 3 weeks
In short: as §1

Stellaria media [9] = assay: Pre-emergence herbicidal effect; type: in vivo; conditions: scored visually after 3 weeks
In short: as §1

Veronica persica [10] = assay: Pre-emergence herbicidal effect; type: in vivo; conditions: scored visually after 3 weeks
In short: as §1

Viola tricolor [11] = assay: Pre-emergence herbicidal effect; type: in vivo; conditions: scored visually after 3 weeks
In short: as §1

Abutilon theophrasti [12] = assay: Post-emergence herbicidal effect; type: in vivo; conditions: 320 g/ha, assessed visually after about 3 weeks vs untreated controls
In short: (§2)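 Greenhouse post-emergence spray: one-leaf seedlings, sandy loam, aqueous WP/EC formulation with 0.2% wetting agent at 600–800 L/ha. Visual assessment after ~3 weeks, as % activity relative to untreated controls.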

Alopecurus myosuroides [13] = assay: Post-emergence herbicidal effect; type: in vivo; conditions: 320 g/ha, assessed visually after about 3 weeks vs untreated controls
In short: as §2

Amaranthus retroflexus [14] = assay: Post-emergence herbicidal effect; type: in vivo; conditions: assessed visually after about 3 weeks vs untreated controls
In short: as §2

Echinochloa crus-galli [15] = assay: Post-emergence herbicidal effect; type: in vivo; conditions: 320 g/ha, assessed visually after about 3 weeks vs untreated controls
In short: as §2

Stellaria media [16] = assay: Post-emergence herbicidal effect; type: in vivo; conditions: 320 g/ha, assessed visually after about 3 weeks vs untreated controls
In short: as §2

Veronica persica [17] = assay: Post-emergence herbicidal effect; type: in vivo; conditions: 320 g/ha, assessed visually after about 3 weeks vs untreated controls
In short: as §2

Viola tricolor [18] = assay: Post-emergence herbicidal effect; type: in vivo; conditions: assessed visually after about 3 weeks vs untreated controls
In short: as §2

logP (HCOOH) = type: physicochemical; conditions: HCOOH
Description: Table 2 (physicochemical characterization of selected synthesis examples)

Ipomoea purpurea = assay: Post-emergence herbicidal effect; type: in vivo; conditions: 320 g/ha, assessed visually after about 3 weeks vs untreated controls
In short: as §2

Lolium multiflorum [19] = assay: Post-emergence herbicidal effect; type: in vivo; conditions: 320 g/ha, assessed visually after about 3 weeks vs untreated controls
In short: as §2

Matricaria inodora [20] = assay: Post-emergence herbicidal effect; type: in vivo; conditions: 320 g/ha, assessed visually after about 3 weeks vs untreated controls
In short: as §2

Polygonum convolvulus [21] = assay: Post-emergence herbicidal effect; type: in vivo; conditions: 320 g/ha, assessed visually after about 3 weeks vs untreated controls
In short: as §2

Setaria viridis [22] = assay: Post-emergence herbicidal effect; type: in vivo; conditions: 320 g/ha, assessed visually after about 3 weeks vs untreated controls
In short: as §2

SMILES | ABUTH pre-emergence efficacy (herbicidal activity) (Abutilon theophrasti [1]) [%] | ALOMY pre-emergence efficacy (herbicidal activity) (Alopecurus myosuroides [2]; Dosage 320 g/ha) [%] | AMARE pre-emergence efficacy (herbicidal activity) (Amaranthus retroflexus [3]; Dosage 80 g/ha) [%] | AMARE pre-emergence efficacy (herbicidal activity) (Amaranthus retroflexus [3]; Dosage 320 g/ha) [%] | ECHCG pre-emergence efficacy (herbicidal activity) (Echinochloa crus-galli [4]; Dosage 320 g/ha) [%] | LOLMU pre-emergence efficacy (herbicidal activity) (Lolium multiflorum [5]) [%] | MATIN pre-emergence efficacy (herbicidal activity) (Matricaria inodora [6]; Dosage 80 g/ha) [%] | MATIN pre-emergence efficacy (herbicidal activity) (Matricaria inodora [6]; Dosage 320 g/ha) [%] | POLCO pre-emergence efficacy (herbicidal activity) (Polygonum convolvulus [7]; Dosage 320 g/ha) [%] | SETVI pre-emergence efficacy (herbicidal activity) (Setaria viridis [8]; Dosage 320 g/ha) [%] | STEME pre-emergence efficacy (herbicidal activity) (Stellaria media [9]; Dosage 80 g/ha) [%] | STEME pre-emergence efficacy (herbicidal activity) (Stellaria media [9]; Dosage 320 g/ha) [%] | VERPE pre-emergence efficacy (herbicidal activity) (Veronica persica [10]; Dosage 80 g/ha) [%] | VERPE pre-emergence efficacy (herbicidal activity) (Veronica persica [10]; Dosage 320 g/ha) [%] | post-emergence efficacy ABUTH (Abutilon theophrasti [12]) [%] | post-emergence efficacy ALOMY (Alopecurus myosuroides [13]) [%] | post-emergence efficacy AMARE (Amaranthus retroflexus [14]; 320 g/ha) [%] | post-emergence efficacy STEME (Stellaria media [16]) [%] | post-emergence efficacy VERPE (Veronica persica [17]) [%] | post-emergence efficacy VIOTR (Viola tricolor [18]; 320 g/ha) [%] | also measured
CS(=O)(=O)c1cnc(NC2CCCc3ccsc32)nc1N (racemic) [compound 69] | 100 | 80 | 100 | 100 | 100 | 100 | 100 | 100 | 100 | 100 | 100 | 100 | 100 | 100 | 80 | 80 | 90 | 90 | 80 | 100 | VIOTR pre-emergence efficacy (herbicidal activity) (Viola tricolor [11]; Dosage 80 g/ha): 100%; VIOTR pre-emergence efficacy (herbicidal activity) (Viola tricolor [11]; Dosage 320 g/ha): 100%; post-emergence efficacy AMARE (Amaranthus retroflexus [14]; 80 g/ha): 20%; post-emergence efficacy ECHCG (Echinochloa crus-galli [15]): 80%; post-emergence efficacy VIOTR (Viola tricolor [18]; 80 g/ha): 80%; logP (HCOOH) (logP (HCOOH)): solid; m.p.: 129.9° C.; logP (HCOOH): 1.86; 1H NMR (CDCl3, 400 MHZ, δ in ppm): ):
C/C(=N\OC(C)C)c1cnc(NC2CCCc3sc(C)cc32)nc1N (racemic) [compound 288] | 70 | 80 | – | 100 | 100 | 100 | 100 | 100 | 100 | 100 | 100 | 100 | 100 | 100 | 90 | 70 | 90 | 80 | 100 | 90 | POLCO pre-emergence efficacy (herbicidal activity) (Polygonum convolvulus [7]; Dosage 80 g/ha): 80%; VIOTR pre-emergence efficacy (herbicidal activity) (Viola tricolor [11]; Dosage 80 g/ha): 70%; VIOTR pre-emergence efficacy (herbicidal activity) (Viola tricolor [11]; Dosage 320 g/ha): 100%; post-emergence efficacy PHBPU (Ipomoea purpurea): 70%; post-emergence efficacy LOLMU (Lolium multiflorum [19]): 60%; post-emergence efficacy MATIN (Matricaria inodora [20]): 90%; post-emergence efficacy POLCO (Polygonum convolvulus [21]): 70%; post-emergence efficacy VIOTR (Viola tricolor [18]; 80 g/ha): 70%
Cc1cc2c(s1)CCC[C@H]2Nc1ncc2c(n1)CCCS2(=O)=O [compound 44] | 100 | 100 | 100 | 100 | 100 | 100 | 100 | 100 | 100 | 100 | 100 | 100 | 100 | 100 | 90 | 90 | 100 | 100 | 100 | 80 | ALOMY pre-emergence efficacy (herbicidal activity) (Alopecurus myosuroides [2]; Dosage 80 g/ha): 80%; ECHCG pre-emergence efficacy (herbicidal activity) (Echinochloa crus-galli [4]; Dosage 80 g/ha): 100%; POLCO pre-emergence efficacy (herbicidal activity) (Polygonum convolvulus [7]; Dosage 80 g/ha): 100%; SETVI pre-emergence efficacy (herbicidal activity) (Setaria viridis [8]; Dosage 80 g/ha): 100%; post-emergence efficacy ECHCG (Echinochloa crus-galli [15]): 100%; post-emergence efficacy PHBPU (Ipomoea purpurea): 100%; post-emergence efficacy POLCO (Polygonum convolvulus [21]): 80%; post-emergence efficacy SETVI (Setaria viridis [22]): 100%
